# Results from ChEMBL document CHEMBL2440076, “New triarylpyrazoles as broad-spectrum anticancer agents: design, synthesis, and biological evaluation” (Eur J Med Chem, 2013).
# Assays:
# Format in all cases: functional
# U-251 = assay: Growth inhibition of human U251 cells assessed as cell growth at 10^-7 M after 48 hrs by sulforhodamine B assay; details: U-251, 48 h, read-out: Activity
# SF-539 = assay: Growth inhibition of human SF539 cells assessed as cell growth at 10^-7 M after 48 hrs by sulforhodamine B assay; details: SF-539, 48 h, read-out: Activity
# K562 [1] = assay: Growth inhibition of human K562 cells assessed as cell growth at 10^-7 M after 48 hrs by sulforhodamine B assay; details: K562, 48 h, read-out: Activity
# MDA-MB-468 = assay: Growth inhibition of human MDA-MB-468 cells assessed as cell growth at 10^-8 M after 48 hrs by sulforhodamine B assay; details: MDA-MB-468, 48 h, read-out: Activity
# T47D = assay: Growth inhibition of human T47D cells assessed as cell growth at 10^-4 M after 48 hrs by sulforhodamine B assay; details: read-out: Activity
# UO-31 [2] = assay: Growth inhibition of human UO31 cells assessed as cell growth at 10^-4 M after 48 hrs by sulforhodamine B assay; details: UO-31, 48 h, read-out: Activity
# MDA-MB-231 = assay: Growth inhibition of human MDA-MB-231 cells assessed as cell growth at 10^-8 M after 48 hrs by sulforhodamine B assay; details: MDA-MB-231, 48 h, read-out: Activity
# OVCAR-8 = assay: Growth inhibition of human OVCAR8 cells assessed as cell growth at 10^-4 M after 48 hrs by sulforhodamine B assay; details: OVCAR-8, 48 h, read-out: Activity
# UACC-257 [3] = assay: Growth inhibition of human UACC257 cells assessed as cell growth at 10^-4 M after 48 hrs by sulforhodamine B assay; details: UACC-257, 48 h, read-out: Activity
# SK-MEL-5 = assay: Growth inhibition of human SK-MEL-5 cells assessed as cell growth at 10^-4 M after 48 hrs by sulforhodamine B assay; details: SK-MEL-5, 48 h, read-out: Activity
# NCI-H522 = assay: Growth inhibition of human NCI-H522 cells assessed as cell growth at 10^-4 M after 48 hrs by sulforhodamine B assay; details: NCI-H522, 48 h, read-out: Activity
# UO-31 [4] = assay: Growth inhibition of human UO31 cells assessed as cell growth at 10^-8 M after 48 hrs by sulforhodamine B assay; details: UO-31, 48 h, read-out: Activity
# SNB-75 [5] = assay: Growth inhibition of human SNB75 cells assessed as cell growth at 10^-8 M after 48 hrs by sulforhodamine B assay; details: SNB-75, 48 h, read-out: Activity
# HOP-92 = assay: Growth inhibition of human HOP92 cells assessed as cell growth at 10^-8 M after 48 hrs by sulforhodamine B assay; details: HOP-92, 48 h, read-out: Activity
# MOLT-4 = assay: Growth inhibition of human MOLT4 cells assessed as cell growth at 10^-8 M after 48 hrs by sulforhodamine B assay; details: MOLT-4, 48 h, read-out: Activity
# NCI-H460 = assay: Growth inhibition of human NCI-H460 cells assessed as cell growth at 10^-4 M after 48 hrs by sulforhodamine B assay; details: NCI-H460, 48 h, read-out: Activity
# K562 [6] = assay: Growth inhibition of human K562 cells assessed as cell growth at 10^-4 M after 48 hrs by sulforhodamine B assay; details: K562, 48 h, read-out: Activity
# SK-OV-3 [7] = assay: Growth inhibition of human SKOV3 cells assessed as cell growth at 10^-5 M after 48 hrs by sulforhodamine B assay; details: SK-OV-3, 48 h, read-out: Activity
# SNB-75 [8] = assay: Growth inhibition of human SNB75 cells assessed as cell growth at 10^-5 M after 48 hrs by sulforhodamine B assay; details: SNB-75, 48 h, read-out: Activity
# HCT-116 = assay: Growth inhibition of human HCT116 cells assessed as cell growth at 10^-5 M after 48 hrs by sulforhodamine B assay; details: HCT-116, 48 h, read-out: Activity
# NCI-H23 [9] = assay: Growth inhibition of human NCI-H23 cells assessed as cell growth at 10^-5 M after 48 hrs by sulforhodamine B assay; details: NCI-H23, 48 h, read-out: Activity
# SR [10] = assay: Growth inhibition of human SR cells assessed as cell growth at 10^-5 M after 48 hrs by sulforhodamine B assay; details: read-out: Activity
# UO-31 [11] = assay: Growth inhibition of human UO31 cells assessed as cell growth at 10^-6 M after 48 hrs by sulforhodamine B assay; details: UO-31, 48 h, read-out: Activity
# [12] = Growth inhibition of human NCI-ADR-RES cells assessed as cell growth at 10^-6 M after 48 hrs by sulforhodamine B assay; details: read-out: Activity
# IGROV-1 = assay: Growth inhibition of human IGROV1 cells assessed as cell growth at 10^-6 M after 48 hrs by sulforhodamine B assay; details: IGROV-1, 48 h, read-out: Activity
# UACC-257 [13] = assay: Growth inhibition of human UACC257 cells assessed as cell growth at 10^-6 M after 48 hrs by sulforhodamine B assay; details: UACC-257, 48 h, read-out: Activity
# SK-MEL-28 = assay: Growth inhibition of human SK-MEL-28 cells assessed as cell growth at 10^-6 M after 48 hrs by sulforhodamine B assay; details: SK-MEL-28, 48 h, read-out: Activity
# SNB-19 = assay: Growth inhibition of human SNB19 cells assessed as cell growth at 10^-6 M after 48 hrs by sulforhodamine B assay; details: SNB-19, 48 h, read-out: Activity
# SW-620 = assay: Growth inhibition of human SW620 cells assessed as cell growth at 10^-6 M after 48 hrs by sulforhodamine B assay; details: SW-620, 48 h, read-out: Activity
# HT-29 = assay: Growth inhibition of human HT-29 cells assessed as cell growth at 10^-6 M after 48 hrs by sulforhodamine B assay; details: HT-29, 48 h, read-out: Activity
# NCI-H23 [14] = assay: Growth inhibition of human NCI-H23 cells assessed as cell growth at 10^-6 M after 48 hrs by sulforhodamine B assay; details: NCI-H23, 48 h, read-out: Activity
# SR [15] = assay: Growth inhibition of human SR cells assessed as cell growth at 10^-6 M after 48 hrs by sulforhodamine B assay; details: read-out: Activity
# A549 = assay: Growth inhibition of human A549/ATCC cells assessed as cell growth at 10^-6 M after 48 hrs by sulforhodamine B assay; details: A549, 48 h, read-out: Activity
# UO-31 [16] = assay: Growth inhibition of human UO31 cells assessed as cell growth at 10^-7 M after 48 hrs by sulforhodamine B assay; details: UO-31, 48 h, read-out: Activity
# RXF 393 = assay: Growth inhibition of human RXF393 cells assessed as cell growth at 10^-7 M after 48 hrs by sulforhodamine B assay; details: RXF 393, 48 h, read-out: Activity
# CAKI-1 = assay: Growth inhibition of human CAKI-1 cells assessed as cell growth at 10^-7 M after 48 hrs by sulforhodamine B assay; details: CAKI-1, 48 h, read-out: Activity
# SK-OV-3 [17] = assay: Growth inhibition of human SKOV3 cells assessed as cell growth at 10^-7 M after 48 hrs by sulforhodamine B assay; details: SK-OV-3, 48 h, read-out: Activity
# UACC-257 [18] = assay: Growth inhibition of human UACC257 cells assessed as cell growth at 10^-7 M after 48 hrs by sulforhodamine B assay; details: UACC-257, 48 h, read-out: Activity
smiles,measurement,setting,value
COc1cc(-c2nn(-c3cccc(NC(=O)c4ccccc4)c3)cc2-c2ccncc2)ccc1Cl,growth at 0.1 µM,U-251,98%
same,growth at 0.1 µM,SF-539,91%
same,growth at 0.1 µM,K562 [1],99%
same,growth at 0.01 µM,MDA-MB-468,90%
same,growth at 100 µM,T47D,30%
same,growth at 100 µM,UO-31 [2],24%
same,growth at 0.01 µM,MDA-MB-231,103%
same,growth at 100 µM,OVCAR-8,26%
same,growth at 100 µM,UACC-257 [3],24%
same,growth at 100 µM,SK-MEL-5,-85%
same,growth at 100 µM,NCI-H522,6%
same,growth at 0.01 µM,UO-31 [4],92%
same,growth at 0.01 µM,SNB-75 [5],89%
same,growth at 0.01 µM,HOP-92,93%
same,growth at 0.01 µM,MOLT-4,102%
same,growth at 100 µM,NCI-H460,5%
same,growth at 100 µM,K562 [6],11%
same,growth at 10 µM,SK-OV-3 [7],31%
same,growth at 10 µM,SNB-75 [8],1%
same,growth at 10 µM,HCT-116,17%
same,growth at 10 µM,NCI-H23 [9],21%
same,growth at 10 µM,SR [10],2%
same,growth at 1 µM,UO-31 [11],42%
same,growth at 1 µM,[12],28%
same,growth at 1 µM,IGROV-1,35%
same,growth at 1 µM,UACC-257 [13],47%
same,growth at 1 µM,SK-MEL-28,60%
same,growth at 1 µM,SNB-19,47%
same,growth at 1 µM,SW-620,35%
same,growth at 1 µM,HT-29,17%
same,growth at 1 µM,NCI-H23 [14],63%
same,growth at 1 µM,SR [15],7%
same,growth at 1 µM,A549,37%
same,growth at 0.1 µM,UO-31 [16],81%
same,growth at 0.1 µM,RXF 393,113%
same,growth at 0.1 µM,CAKI-1,99%
same,growth at 0.1 µM,SK-OV-3 [17],95%
same,growth at 0.1 µM,UACC-257 [18],99%
